From ChEMBL document CHEMBL1833866, “Synthesis and evaluation of 1-(4-[¹⁸F]fluoroethyl)-7-(4'-methyl)curcumin with improved brain permeability for β-amyloid plaque imaging” (Bioorg Med Chem Lett, 2011)
Blank lines part the entries; values can stand above or below the molecule they belong to. The source made the active and inactive calls. The calls are words filed in the database; no cut-off is given here.

Tests used:
[1] = Binding affinity to amyloid beta (1 to 42) after 3 hrs using [125I]IMSB by gamma counter method
[2] = system: Mus musculus; test: In vivo binding affinity to amyloid beta (1 to 42) in double transgenic APP/PS-1 mouse brain at 100 uM after 30 mins by microscopy; type: functional, organism-based
[3] = system: Mus musculus; test: In vivo binding affinity to amyloid beta (1 to 42) in wild type mouse brain at 100 uM after 30 mins by microscopy; type: functional, organism-based
[4] = system: Lung; test: Biodistribution in ICR mouse Lung at 1.11 MBq, iv after 120 mins; type: ADME, organism-based; settings: in vivo, 2 h
[5] = system: Heart; test: Biodistribution in ICR mouse heart at 1.11 MBq, iv after 30 mins; type: ADME, organism-based; settings: in vivo, 0.5 h
[6] = system: Femur; test: Biodistribution in ICR mouse Femur at 1.11 MBq, iv after 2 mins; type: ADME, organism-based; settings: in vivo
[7] = system: Brain; test: Biodistribution in ICR mouse Brain at 1.11 MBq, iv after 2 mins; type: ADME, organism-based; settings: in vivo
[8] = system: Liver; test: Biodistribution in ICR mouse Liver at 1.11 MBq, iv after 120 mins; type: ADME, organism-based; settings: in vivo, 2 h
[9] = system: Kidney; test: Biodistribution in ICR mouse Kidney at 1.11 MBq, iv after 120 mins; type: ADME, organism-based; settings: in vivo, 2 h
[10] = system: Heart; test: Biodistribution in ICR mouse heart at 1.11 MBq, iv after 2 mins; type: ADME, organism-based; settings: in vivo
[11] = system: Heart; test: Biodistribution in ICR mouse heart at 1.11 MBq, iv after 60 mins; type: ADME, organism-based; settings: in vivo, 1 h
[12] = system: Heart; test: Biodistribution in ICR mouse heart at 1.11 MBq, iv after 120 mins; type: ADME, organism-based; settings: in vivo, 2 h
[13] = system: Liver; test: Biodistribution in ICR mouse Liver at 1.11 MBq, iv after 60 mins; type: ADME, organism-based; settings: in vivo, 1 h
[14] = system: Spleen; test: Biodistribution in ICR mouse Spleen at 1.11 MBq, iv after 60 mins; type: ADME, organism-based; settings: in vivo, 1 h
[15] = system: Spleen; test: Biodistribution in ICR mouse Spleen at 1.11 MBq, iv after 2 mins; type: ADME, organism-based; settings: in vivo
[16] = system: Blood; test: Biodistribution in ICR mouse blood at 1.11 MBq, iv after 60 mins; type: ADME, organism-based; settings: in vivo, 1 h
[17] = system: Kidney; test: Biodistribution in ICR mouse Kidney at 1.11 MBq, iv after 30 mins; type: ADME, organism-based; settings: in vivo, 0.5 h
[18] = system: Lung; test: Biodistribution in ICR mouse Lung at 1.11 MBq, iv after 30 mins; type: ADME, organism-based; settings: in vivo, 0.5 h
[19] = system: Kidney; test: Biodistribution in ICR mouse Kidney at 1.11 MBq, iv after 60 mins; type: ADME, organism-based; settings: in vivo, 1 h
[20] = system: Blood; test: Biodistribution in ICR mouse blood at 1.11 MBq, iv after 30 mins; type: ADME, organism-based; settings: in vivo, 0.5 h
[21] = system: Muscle tissue; test: Biodistribution in ICR mouse Muscle at 1.11 MBq, iv after 60 mins; type: ADME, organism-based; settings: in vivo, 1 h
[22] = system: Muscle tissue; test: Biodistribution in ICR mouse Muscle at 1.11 MBq, iv after 120 mins; type: ADME, organism-based; settings: in vivo, 2 h
[23] = system: Spleen; test: Biodistribution in ICR mouse Spleen at 1.11 MBq, iv after 30 mins; type: ADME, organism-based; settings: in vivo, 0.5 h
[24] = system: Blood; test: Biodistribution in ICR mouse blood at 1.11 MBq, iv after 2 mins; type: ADME, organism-based; settings: in vivo
[25] = Octanol-water partition coefficient, log P of the compound by TLC analysis; type: physicochemical
[26] = system: Blood; test: Biodistribution in ICR mouse blood at 1.11 MBq, iv after 120 mins; type: ADME, organism-based; settings: in vivo, 2 h
[27] = system: Muscle tissue; test: Biodistribution in ICR mouse Muscle at 1.11 MBq, iv after 30 mins; type: ADME, organism-based; settings: in vivo, 0.5 h
[28] = system: Brain; test: Biodistribution in ICR mouse Brain at 1.11 MBq, iv after 30 mins; type: ADME, organism-based; settings: in vivo, 0.5 h
[29] = system: Femur; test: Biodistribution in ICR mouse Femur at 1.11 MBq, iv after 30 mins; type: ADME, organism-based; settings: in vivo, 0.5 h
[30] = system: Femur; test: Biodistribution in ICR mouse Femur at 1.11 MBq, iv after 120 mins; type: ADME, organism-based; settings: in vivo, 2 h
[31] = system: Muscle tissue; test: Biodistribution in ICR mouse Muscle at 1.11 MBq, iv after 2 mins; type: ADME, organism-based; settings: in vivo
[32] = system: Lung; test: Biodistribution in ICR mouse Lung at 1.11 MBq, iv after 60 mins; type: ADME, organism-based; settings: in vivo, 1 h
[33] = system: Brain; test: Biodistribution in ICR mouse Brain at 1.11 MBq, iv after 60 mins; type: ADME, organism-based; settings: in vivo, 1 h
[34] = system: Femur; test: Biodistribution in ICR mouse Femur at 1.11 MBq, iv after 60 mins; type: ADME, organism-based; settings: in vivo, 1 h
[35] = system: Liver; test: Biodistribution in ICR mouse Liver at 1.11 MBq, iv after 2 mins; type: ADME, organism-based; settings: in vivo
[36] = system: Lung; test: Biodistribution in ICR mouse Lung at 1.11 MBq, iv after 2 mins; type: ADME, organism-based; settings: in vivo
[37] = system: Spleen; test: Biodistribution in ICR mouse Spleen at 1.11 MBq, iv after 120 mins; type: ADME, organism-based; settings: in vivo, 2 h
[38] = system: Brain; test: Biodistribution in ICR mouse Brain at 1.11 MBq, iv after 120 mins; type: ADME, organism-based; settings: in vivo, 2 h
[39] = system: Liver; test: Biodistribution in ICR mouse Liver at 1.11 MBq, iv after 30 mins; type: ADME, organism-based; settings: in vivo, 0.5 h
[40] = system: Kidney; test: Biodistribution in ICR mouse Kidney at 1.11 MBq, iv after 2 mins; type: ADME, organism-based; settings: in vivo
[41] = Binding affinity to amyloid beta (1 to 40) after 3 hrs using [125I]IMSB by gamma counter method
[42] = Ratio of drug uptake in hippocampus to cerebellum in transgenic Tg2576 mouse brain; settings: in vivo

Ki [1]: 2.69 nM
SMILES: COc1ccc(/C=C/C(=O)/C=C(O)/C=C/c2ccc(OCCCF)c(OC)c2)cc1OC

Ki [1]: 3.57 nM
SMILES: COc1cc(/C=C/C(=O)CC(=O)/C=C/c2ccc(O)c(OC)c2)ccc1O [CURCUMIN]

Ki [1]: 4.44 nM
SMILES: COc1cc(/C=C/C(=O)/C=C(O)/C=C/c2ccc(OCCOCCOCCF)c(OC)c2)ccc1O

Ki [1]: 3.01 nM
SMILES: COc1ccc(/C=C/C(=O)/C=C(O)/C=C/c2ccc(OCCOCCF)c(OC)c2)cc1OC

Ki [1]: 1.7 nM
SMILES: [11CH3]Nc1ccc(-c2nc3ccc(O)cc3s2)cn1

Ki [1]: 2.12 nM
SMILES: COc1ccc(/C=C/C(=O)/C=C(O)/C=C/c2ccc(OCCF)c(OC)c2)cc1OC
Activity [2]: Active
Activity [3]: inactive

Ki [1]: 4.65 nM
SMILES: COc1cc(/C=C/C(=O)/C=C(O)/C=C/c2ccc(OCCOCCF)c(OC)c2)ccc1O

Drug uptake [4]: 2.19 % ID/g
Drug uptake [5]: 1.68 % ID/g
Drug uptake [6]: 1.86 % ID/g
Drug uptake [7]: 1.44 % ID/g
Drug uptake [8]: 12.51 % ID/g
Drug uptake [9]: 1.42 % ID/g
Drug uptake [10]: 7.18 % ID/g
Drug uptake [11]: 1.3 % ID/g
Drug uptake [12]: 1.54 % ID/g
Drug uptake [13]: 26.83 % ID/g
Drug uptake [14]: 10.59 % ID/g
Drug uptake [15]: 16.41 % ID/g
Drug uptake [16]: 0.89 % ID/g
Drug uptake [17]: 4.01 % ID/g
Drug uptake [18]: 3.94 % ID/g
Drug uptake [19]: 2.25 % ID/g
Drug uptake [20]: 1.26 % ID/g
Drug uptake [21]: 0.47 % ID/g
Drug uptake [22]: 0.37 % ID/g
Drug uptake [23]: 20.8 % ID/g
Drug uptake [24]: 9.76 % ID/g
logP [25]: 2.4
Drug uptake [26]: 0.67 % ID/g
Drug uptake [27]: 0.76 % ID/g
Drug uptake [28]: 0.45 % ID/g
Drug uptake [29]: 1.08 % ID/g
Drug uptake [30]: 1.62 % ID/g
Drug uptake [31]: 0.89 % ID/g
Drug uptake [32]: 2.27 % ID/g
Drug uptake [33]: 0.43 % ID/g
Drug uptake [34]: 1 % ID/g
Drug uptake [35]: 38.83 % ID/g
Drug uptake [36]: 23.78 % ID/g
Drug uptake [37]: 8.08 % ID/g
Drug uptake [38]: 0.29 % ID/g
Drug uptake [39]: 43.02 % ID/g
Drug uptake [40]: 10.95 % ID/g
SMILES: COc1ccc(/C=C/C(=O)/C=C(O)/C=C/c2ccc(OCC[18F])c(OC)c2)cc1OC

Ki [41]: 0.07 nM
Ratio [42]: 3
SMILES: COc1cc(/C=C/C(O)=C/C(=O)/C=C/c2ccc(OCCC[18F])c(OC)c2)ccc1O

Kd [1]: 1.19 nM
SMILES: COc1ccc(/C=C/c2ccc(/C=C/c3ccc(OC)c(C(=O)O)c3)c([125I])c2)cc1C(=O)O

Ki [1]: 0.43 nM
SMILES: O=C(O)c1cc(/N=N/c2ccc(-c3ccc(/N=N/c4ccc(O)c(C(=O)O)c4)cc3)cc2)ccc1O [CHRYSAMINE G]
